Experimental data reported in patent US20110263647A1 (AMGEN INC., priority 2009, published 2011).
Structures can show the parent of a compound that is named as a salt. Where two headings read alike, the source gives them in different places.

Legend:
CYP2D6 = molecular target: T1, CYP2D6 (Homo sapiens, UniProt P10635); assay: CYP2D6 inhibition assay (bufuralol, pooled human liver microsomes); format: in vitro ADME; settings: pH 7.4, probe bufuralol (5 μM), test compound 3 μM, human liver microsomes 0.25 mg/mL
T1 construct: tissue XenoTech LLC Lot 0610351; host or cells: pooled human liver microsomes
Protocol: Midazolam was obtained from BD Gentest (Waltham, Mass.); 1′ hydroxy midazolam and 1-hydroxy bufuralol maleate were obtained from Ultrafine Chemicals (Manchester, UK); bufuralol HCl, ketoconazole, quinidine, potassium phosphate, and NADPH were obtained from Sigma (St. Louis, Mo.). Test compounds were prepared at 10 mM concentration in DMSO (Mallinckrodt Inc., St. Louis, Mo.). NADPH was prepared at 10 mM concentration in a pH 7.4 buffer (8.3 mg/mL 66.7 mM potassium phosphate). Midazolam was prepared at 1 mM concentration in deionized water (Amgen, Thousand Oaks, Calif.), and bufuralol was prepared at 2 mM concentration in deionized water. A stock solution of ketoconazole was prepared at 37 mM concentration in DMSO, and quinidine was prepared at 500 uM concentration in DMSO. Formic acid in acetonitrile (0.05%, ACN) was used as a quench solution (Sigma-Aldrich, St. Louis, Mo.). All solvents used for LC/MS were of chromatographic grade. Pooled human liver microsomes (Lot 0610351) were purchased from XenoTech LLC, (Lenexa, Kans.).
Pooled human liver microsomes (0.25 mg/mL) were incubated at 37° C. in a phosphate buffer (66.7 mM potassium phosphate at pH 7.4) with the selective CYP2D6 substrate bufuralol at a concentration of 5 μM in the presence and absence of test compound (3 μM). The reaction was started with the addition of NADPH (1 mM final concentration). The reaction was stopped after 10 minutes by addition of formic acid in acetonitrile. 1-Hydroxybufuralol metabolite formation was measured by an HPLC MS detection method (mobile phases for HPLC were: 0.1% AcOH in 5% MeOH, and 0.1% AcOH in 95% MeOH; the HPLC column was an Onyx Monolithic C18 CHO-7645 HPLC column from Phenomenex; Shimadzu LC-10ADVP equipped Biomek FX Liquid handling system and CTC Analytics PAL well auto-sampler; Mass spectrometer: Applied Biosystems API 3000 using Analyst 1.4.1 software). Inhibition was determined by the ratio of the amount of 1-hydroxy bufuralol metabolite formed metabolite in the presence of test compound to the amount of metabolite in the absence of test compound.

[1] = In vivo pharmacokinetics, IV and oral gavage; set-up: species or system male Sprague-Dawley rats; settings: rat; for FPO: Table 5; for Fpo (%): Table 6; for clearance / AUC(0-t) / Cmax / Vd: male, Sprague-Dawley, plasma; for Vd: read-out: Vss
Protocol: In vivo pharmacokinetic parameters were determined by measuring systemic plasma exposure in male Sprague-Dawley rats (Charles River Laboratories or Taconic, Oxnard, Calif.) by intravenous administration (N=3 fed rats: 2 mg/kg tail vein injection in DMSO) and oral gavage (N=3 fasted rats: 5 mg/kg in 1% Tween 80-2% HPMC-97% deionized water-pH 2.0 vehicle) (Comparative Example 18′ was only dosed IV and at 0.5 mg/kg). DMSO was obtained from Mallinckrodt Inc.; Tween 80 was obtained from Croda; HPMC is Methocel E50 Premium LV, obtained from Dow Excipients. Following oral administration, blood was drawn (250 μL) at 0.25, 0.5, 1, 2, 4, 6, 8, 12, and 16 hours. Following iv administration, blood was drawn (250 μL) at 0.083, 0.25, 0.5, 1, 2, 4, 6, 8, and 16 hours. Blood samples were drawn using a Culex® In Vivo Sampling System (BASi) and collected in BD Microtainer® tubes containing Lithium Heparin (BD). Plasma was obtained by centrifugation of blood at 14000 g and 2-8° C. for five minutes using an Eppendorf 5417R Centrifuge System. Plasma samples were mixed with 2× volume of acetonitrile (Sigma-Aldrich, St. Louis, Mo.). The mixture was stirred briefly using a vortex mixer and then centrifuged at 2867 g for 5 minutes in a Beckman Coulter Allegra 25R equipped with a Type S5700 rotor. The supernatant was removed and diluted 2× with mobile phase A (5/94.9/0.1 v/v/v MeOH/water/AcOH). Plasma concentrations were determined using liquid chromatography/tandem mass spectrometry, with electrospray ionization (ESI) and multiple reaction monitoring in the positive ion mode (Sciex API 3000 mass spectrometer connected to a Shimadzu LC-20AD pump and a LEAP PAL autosampler. Typical conditions used for HPLC were: mobile phase A=5/94.9/0.1 v/v/v MeOH/water/AcOH and mobile phase B=95/4.9/0.1 v/v/v MeOH/water/AcOH; HPLC column was a Varian MonoChrom C18.3μ for 2×30 mm and 51.1 for 2×50 mm) Instrument response was calibrated by a standard curve over 0.1-2000 ng/mL concentration range, and the lower limit of quantitation was 0.1-2.5 ng/mL. Peak areas were integrated on a Windows 2000 computer using the Sciex program Analyst® (Version 1.4.1). Following peak area integration, the data were exported to the software package (Watson® Non-GLP PROD (Version 7.0.0.01, Thermo Electron Corp., Waltham, Mass.)), where concentrations were determined by a weighted linear regression of peak area versus the nominal concentrations of the calibration standards. Calculations were performed on unrounded numbers. The Watson® Non-GLP PROD software was used to determine precision and accuracy for the calibration standards. Noncompartmental analysis of plasma concentration data was used to generate PK parameters such as clearance (CL, L/h/kg), volume of distribution (Vss, L/kg), area under the curve (AUC, ng·h/mL) and secondary parameters such as half-life (t1/2, h) and oral bioavailability (% F, %). This was done using WinNonlin Enterprise software (Version 5.1.1, from Pharsight Corp., Mountain View, Calif.). References for pharmacokinetic analysis include: Gabrielsson and Weiner (1997) Pharmacokinetic and Pharmacodynamic Data Analysis Concepts and Applications, 2nd ed., Swedish Pharmaceutical Press, Stockholm; Gibaldi and Perrier (1982) Pharmacokinetics, 2nd ed., Marcel Dekker, New York. Rowland and Tozer (1995) Clinical Pharmacokinetics: Concepts and Applications, 3rd ed., Lippincott Williams & Wilkins, Philadelphia.

[2] = IV 2 mg/kg, read-out: IV AUClast
[3] = PO 5 mg/kg, read-out: Oral AUClast
[4] = PO 5 mg/kg, read-out: Oral Cmax

T1 sequence (P10635 whole entry): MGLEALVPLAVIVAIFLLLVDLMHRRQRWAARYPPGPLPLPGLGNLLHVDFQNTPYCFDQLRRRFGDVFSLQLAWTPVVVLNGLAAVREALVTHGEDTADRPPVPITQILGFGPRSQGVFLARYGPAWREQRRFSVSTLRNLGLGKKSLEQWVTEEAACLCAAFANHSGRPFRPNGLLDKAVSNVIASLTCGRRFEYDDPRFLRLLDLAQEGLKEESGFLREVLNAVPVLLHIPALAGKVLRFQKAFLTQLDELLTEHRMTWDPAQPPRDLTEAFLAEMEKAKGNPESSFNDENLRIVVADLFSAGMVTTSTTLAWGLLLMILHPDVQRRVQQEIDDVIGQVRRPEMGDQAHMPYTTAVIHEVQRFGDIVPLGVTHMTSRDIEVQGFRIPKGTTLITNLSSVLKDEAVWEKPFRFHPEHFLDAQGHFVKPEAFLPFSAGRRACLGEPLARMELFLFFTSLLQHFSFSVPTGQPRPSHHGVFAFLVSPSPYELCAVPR

inhibition at 10 min, 3 μM (CYP2D6) | FPO ([1]; PO 5 mg/kg, IV 2 mg/kg) | Fpo (%) ([1]; PO 5 mg/kg, IV 2 mg/kg) | clearance ([1]; IV 2 mg/kg) | AUC(0-t) [1, 2] | Cmax ([1]; IV 2 mg/kg, read-out: IV Cmax) | Vd ([1]; IV 2 mg/kg) | AUC(0-t) [1, 3] | Cmax [1, 4] | SMILES
42% | 65% | 67% | 8.2 mL/min/kg | 2030 ng·h/mL | 292 ng/mL | 11.4 L/kg | 3290 ng·h/mL | 261 ng/mL | N[C@H](CNc1ncc(-c2ccc3cnc(F)cc3c2)s1)Cc1ccc(Cl)c(F)c1 [Example 44, (2S)-3-(4-Chloro-3-fluorophenyl)-N-1-(5-(3-fluoro-6-isoquinoliny)-1,3-thiazol-2-yl)-1-2-propanediamine]
49% | 28% | 28% | 9.02 mL/min/kg | 3130 ng·h/mL | 803 ng/mL | 3.41 L/kg | 2150 ng·h/mL | 268 ng/mL | N[C@H](CNc1ncc(-c2ccc3cnc(F)cc3c2)s1)[C@@H](CO)c1ccc(C(F)(F)F)cc1 [Example 33, (2S,3S)-3-Amino-4-(5-(3-fluoroisoquinolin-6-yl)thiazol-2-ylamino)-2-(4-(trifluoromethyl)phenyl)butan-1-ol]
44% | 36% | 45% | 8.53 mL/min/kg | 3010 ng·h/mL | 473 ng/mL | 9.48 L/kg | 2730 ng·h/mL | 100 ng/mL | CC(F)(F)c1ccc([C@H](O)[C@H](N)CNc2ncc(-c3ccc4cnc(F)cc4c3)s2)cc1 [Example 38, (1S,2R)-2-Amino-1-(4-(1,1-difluoroethyl)phenyl)-3-((5-(3-fluoro-6-isoquinolinyl)-1,3-thiazol-2-yl)amino)-1-propanol trifluoroacetate]
19% | 61% | 52% | 12.5 mL/min/kg | 2040 ng·h/mL | 426 ng/mL | 7.17 L/kg | 3100 ng·h/mL | 316 ng/mL | C[C@@H](c1ccc(C(F)(F)F)cc1)[C@H](N)CNc1ncc(-c2ccc3cnc(F)cc3c2)s1 [Example 10, N-((2S,3S)-2-Amino-3-(4-(trifluoromethyl)phenyl)butyl)-5-(3-fluoroisoquinolin-6-yl)thiazol-2-amine]
51% | 55% | 34% | 29.9 mL/min/kg | 1100 ng·h/mL | 396 ng/mL | 9.88 L/kg | 1500 ng·h/mL | 58 ng/mL | N[C@H](CNc1ncc(-c2ccc3cnc(F)cc3c2)s1)CN1CCC(C(F)(F)F)CC1 [Example 25, N—((R)-2-Amino-3-(4-(trifluoromethyl)piperidin-1-yl)propyl)-5-(3-fluoroisoquinolin-6-yl)thiazol-2-amine]
23% | 42% | 47% | 22.2 mL/min/kg | 1440 ng·h/mL | 432 ng/mL | 6.22 L/kg | 1500 ng·h/mL | 216 ng/mL | CC(F)(F)c1ccc(C[C@H](N)CNc2ncc(-c3ccc4cnc(F)cc4c3)s2)cn1 [Example 7, N—((S)-2-Amino-3-(6-(1,1-difluoroethyl)pyridin-3-yl)propyl)-5-(3-fluoroisoquinolin-6-yl)thiazol-2-amine]
71% | 103% | 85% | 45.1 mL/min/kg | 709 ng·h/mL | 165 ng/mL | 15.3 L/kg | 1820 ng·h/mL | 228 ng/mL | CC(F)(F)c1ccc(C[C@H](N)CCc2ncc(-c3ccc4cnc(F)cc4c3)s2)cn1 [Example 50]
53% | 40% | 57% | 12.1 mL/min/kg | 2370 ng·h/mL | 531 ng/mL | 5.19 L/kg | 2380 ng·h/mL | 302 ng/mL | N[C@H](CNc1ncc(-c2ccc3cnc(F)cc3c2)s1)Cc1ccc(C(F)(F)F)nc1 [Example 2, (2S)—N-(5-(3-Fluoro-6-isoquinolinyl)-1,3-thiazol-2-yl)-3-(6-(trifluoromethyl)-3-pyridinyl)-1,2-propanediamine]
44% | 4% | 65% | 21.6 mL/min/kg | 1530 ng·h/mL | 959 ng/mL | 2.59 L/kg | 165 ng·h/mL | 25 ng/mL | N[C@H](CNc1ncc(-c2ccc3cnc(F)cc3c2)s1)Cc1ccc(C(F)(F)F)cc1 [Example 4, N—((S)-2-Amino-3-(4-(trifluoromethyl)phenyl)propyl)-5-(3-fluoroisoquinolin-6-yl)thiazol-2-amine trifluoroacetate]
27% | 64% | 66% | 14.6 mL/min/kg | 1600 ng·h/mL | 210 ng/mL | 14.4 L/kg | 2560 ng·h/mL | 206 ng/mL | N[C@H](CCc1ncc(-c2ccc3cnc(F)cc3c2)s1)[C@@H](O)c1ccc(C(F)(F)F)cc1 [Example 36, (1S,2R)-2-Amino-4-(5-(3-fluoroisoquinolin-6-yl)thiazol-2-yl)-1-(4-(trifluoromethyl)phenyl)butan-1-ol trifluoroacetate]
75% | 40% | 48% | 17.6 mL/min/kg | 1640 ng·h/mL | 422 ng/mL | 8.08 L/kg | 1640 ng·h/mL | 233 ng/mL | COCc1nc(NC[C@@H](N)Cc2ccc(C(F)(F)F)nc2)sc1-c1ccc2cnc(F)cc2c1 [Example 18, N—((S)-2-Amino-3-(6-(trifluoromethyl)pyridin-3-yl)propyl)-5-(3-fluoroisoquinolin-6-yl)-4-(methoxymethyl)thiazol-2-amine]
